Assay results as given in patent US11466019B2, “Triazolo[4,5-d] pyramidine derivatives and their use as purine receptor antagonists” (Vernalis (R&D) Limited, priority 2008, dated 2022).

Experiments:
[1] = molecular target: T1, human adenosine A1 receptors (Homo sapiens, UniProt P30542); assay: Adenosine receptor binding: binding affinities at hA1 receptors ([3H]DPCPX displacement); conditions: Table 1; for Ki: [3H]DPCPX displacement, CHO-K1 membranes, read-out: Binding Affinity hA1-Ki; for Binding Selectivity A1/A2a: ratio of Ki values
T1 construct: expressed in transfected cells; host or cells: CHO-K1
T1 sequence (P30542 1-326): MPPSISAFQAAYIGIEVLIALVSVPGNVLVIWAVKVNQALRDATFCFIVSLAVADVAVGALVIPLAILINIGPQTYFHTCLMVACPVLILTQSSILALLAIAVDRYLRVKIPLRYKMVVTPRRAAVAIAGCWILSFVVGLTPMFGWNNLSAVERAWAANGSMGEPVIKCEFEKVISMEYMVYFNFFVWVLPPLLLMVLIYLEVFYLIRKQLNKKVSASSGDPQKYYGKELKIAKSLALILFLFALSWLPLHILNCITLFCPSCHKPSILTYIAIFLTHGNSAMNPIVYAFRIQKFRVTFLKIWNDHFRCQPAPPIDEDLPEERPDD
Experimental: Adenosine Receptor Binding: Binding Affinities at hA1 Receptors
The resultant homogenate was kept for immediate use in the binding.
(§1) Binding assays were performed in a total volume of 250 μL, containing [^3H]-DPCPX (3.0 nM), membranes and additional drugs. Total binding was determined using drug dilution buffer (50 mM Tris-HCl pH:7.5, 10 mM MgCl2, 5% DMSO). Non-specific binding was determined using 300 μM N6-cyclohexyladenosine (CHA). […] Filters were left to dry overnight, and Microscint-0 scintillation fluid was then added to the filters. The filters were then left for at least 2 hours before the radioactivity was assessed using a Canberra Packard TopCount microplate scintillation counter.
To determine the free ligand concentration, three vials were counted with 25 μL of [^3H]DPCPX containing 4 mL of Ultima-Gold MV scintillant on a Beckman LS6500 multi-purpose scintillation counter.
(§2) Data was analysed using a 4 parameter logistical equation and non-linear regression which yields affinity constants (pIC50), and slope parameters:
(§3) [formula] where E is the quantity of binding and [A] is the competitor concentration. The Ki is then determined using the Cheng-Prusoff equation: […]

[2] = molecular target: T2, human adenosine A2A receptors (Homo sapiens, UniProt P29274); assay: Adenosine receptor binding: binding affinities at hA2A receptors ([3H]CGS-21680 displacement); conditions: Table 1; [3H]CGS-21680 displacement, HEK-293 membranes; read-out: Binding Affinity hA2A-Ki
T2 construct: host or cells: HEK-293
Experimental: Adenosine Receptor Binding: Binding Affinities at hA2A Receptors
as §1, with “The resultant homogenate was kept for immediate use in the binding assay. Binding” for “Binding”, “[^3H]-CGS21680 (20.0” for “[^3H]-DPCPX (3.0”, “pH 7.5,” for “pH:7.5,”, “CHA.” for “N6-cyclohexyladenosine (CHA).”
To determine the free ligand concentration, three vials were counted with 25 μL of [^3H]CGS21680 containing 4 mL of Ultima-Gold MV scintillant on a Beckman LS6500 multi-purpose scintillation counter.
as §2, §3

hA2B receptors = molecular target: T3, hA2B receptors (Homo sapiens, UniProt P29275); assay: Adenosine receptor binding: binding affinities at hA2B receptors ([3H]-ZM241385 displacement); conditions: Table 1; for Ki: [3H]-ZM241385 displacement, HEK-293 membranes, read-out: Binding Affinity hA2B-Ki; for Binding Selectivity A2b/A2a: ratio of Ki values
T3 construct: host or cells: HEK-293
T3 sequence (P29275 1-332): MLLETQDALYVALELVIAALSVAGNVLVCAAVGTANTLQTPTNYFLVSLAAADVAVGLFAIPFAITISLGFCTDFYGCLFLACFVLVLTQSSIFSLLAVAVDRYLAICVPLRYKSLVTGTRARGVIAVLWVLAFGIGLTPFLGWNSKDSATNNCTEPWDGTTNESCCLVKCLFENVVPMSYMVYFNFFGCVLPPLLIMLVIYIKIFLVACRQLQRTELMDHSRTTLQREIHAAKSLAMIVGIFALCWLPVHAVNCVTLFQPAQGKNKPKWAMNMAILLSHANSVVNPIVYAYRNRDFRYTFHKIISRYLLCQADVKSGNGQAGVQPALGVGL

[3] = molecular target: T4, human adenosine A3 receptors (Homo sapiens, UniProt P0DMS8); assay: Adenosine receptor binding: binding affinities at hA3 receptors ([125I]-AB MECA displacement); conditions: Table 1; for Ki: [125I]-AB MECA displacement, CHO-K1 membranes, read-out: Binding Affinity hA3-Ki; for Binding Selectivity A3/A2a: ratio of Ki values
T4 construct: expressed in transfected cells; host or cells: CHO-K1
T4 sequence (P0DMS8 1-318): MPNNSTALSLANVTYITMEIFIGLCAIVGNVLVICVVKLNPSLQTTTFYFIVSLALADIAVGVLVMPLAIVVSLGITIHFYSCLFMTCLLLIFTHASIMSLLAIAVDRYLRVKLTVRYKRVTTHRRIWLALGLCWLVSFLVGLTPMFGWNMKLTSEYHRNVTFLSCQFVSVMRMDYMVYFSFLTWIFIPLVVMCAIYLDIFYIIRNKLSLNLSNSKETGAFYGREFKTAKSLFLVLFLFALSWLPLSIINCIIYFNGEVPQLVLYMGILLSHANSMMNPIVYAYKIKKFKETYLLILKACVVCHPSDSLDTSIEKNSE
Experimental: [formula] Adenosine Receptor Binding: Binding Affinities at hA3 Receptors
The resultant homogenate was kept for immediate use in the binding assay.
as §1, with “Total” for “Binding assays were performed in a total volume of 250 μL, containing [^3H]-DPCPX (3.0 nM), membranes and additional drugs. Total”, “pH 7.5,” for “pH:7.5,”, “10” for “300”, “IB-MECA.” for “N6-cyclohexyladenosine (CHA).”
as §2, §3

[4] = system: haloperidol-induced deficits in locomotor activity in mice; assay: Haloperidol-induced hypolocomotion model (HaloLMA); assay type: in vivo; conditions: female TO mice, intraperitoneal, haloperidol 0.2 mg/kg
Source text: Evaluation of Potential Anti-Parkinsonian Activity In Vivo: Haloperidol-Induced Hypolocomotion Model
This approach is also considered a valid method for screening drugs with potential antiparkinsonian effects. Thus, the ability of novel adenosine antagonists to block haloperidol-induced deficits in locomotor activity in mice can be used to assess both in vivo and potential antiparkinsonian efficacy.
Female TO mice (25-30 g) are used for all experiments. Animals are housed in groups of 8 (cage size-40 cm (width) by 40 cm (length) by 20 cm (height)) under 12 hour light/dark cycle (lights on 08:00), in a temperature (20±2° C.) and humidity (55±15%) controlled environment. Animals have free access to food and water, and are allowed at least 7 days to acclimatize after delivery before experimental use.
Liquid injectable haloperidol (e.g., 1 mL Serenance ampoules from Baker Norton, Harlow, Essex, each containing haloperidol BP 5 mg) are diluted to a final concentration of 0.02 mg/mL using saline. Test compounds are typically prepared as aqueous suspensions in 8% Tween. All compounds are administered intraperitoneally in a volume of 10 mL/kg.
1.5 hours before testing, mice are administered 0.2 mg/kg haloperidol, a dose that reduces baseline locomotor activity by at least 50%. Test substances are typically administered 5-60 minutes prior to testing. The animals are then placed individually into clean, clear polycarbonate cages (20 cm (width) by 40 cm (length) by 20 cm (height), with a flat perforated, Perspex lid). Horizontal locomotor activity is determined by placing the cages within a frame containing a 3 by 6 array of photocells linked to a computer, which tabulates beam breaks. Mice are left undisturbed to explore for 1 hour, and the number of beams breaks made during this period serves as a record of locomotor activity which is compared with data for control animals for statistically significant differences.
A number of the exemplified compounds of the present invention were tested in this assay and the results obtained are shown in Table 3, below.

T2 sequence (P29274 whole entry): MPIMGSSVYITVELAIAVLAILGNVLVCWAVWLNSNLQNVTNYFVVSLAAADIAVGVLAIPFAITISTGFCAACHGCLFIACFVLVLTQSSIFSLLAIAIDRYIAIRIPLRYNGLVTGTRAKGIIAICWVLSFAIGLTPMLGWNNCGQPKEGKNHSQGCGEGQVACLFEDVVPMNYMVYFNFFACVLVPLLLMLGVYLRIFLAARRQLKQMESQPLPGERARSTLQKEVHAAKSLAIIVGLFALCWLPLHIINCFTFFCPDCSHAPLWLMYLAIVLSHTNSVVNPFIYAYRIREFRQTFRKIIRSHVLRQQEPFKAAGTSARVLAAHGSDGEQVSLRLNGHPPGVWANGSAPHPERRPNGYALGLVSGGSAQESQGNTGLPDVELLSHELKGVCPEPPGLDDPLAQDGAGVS

Compound | Ki [1] [nM] | Binding Selectivity A1/A2a [1] | Ki [2] [nM] | Ki (hA2B receptors) [nM] | Binding Selectivity A2b/A2a (hA2B receptors) | Ki [3] [nM] | Binding Selectivity A3/A2a [3] | In Vivo activity HaloLMA MED [4] [mg/kg] | melting point [°C]
Cc1ccc(-c2nc(N)nc3c2nnn3Cc2cccc(COCC3CCOC3)n2)o1 (racemic) [Example 34, 7-(5-methylfuran-2-yl)-3-(6-[tetrahydrofuran-3-ylmethyl]oxymethylpyrid-2-ylmethyl)-3H-[1,2,3]triazolo[4,5-d]pyrimidin-5-amine] | 164 | 40 | 4.1 | 1890 | 457 | 2120 | 513 | 1 | 168.7 to 168.9
COCc1cccc(Cn2nnc3c(-c4ccccc4)nc(N)nc32)n1 [Example 12, 7-phenyl-3-(6-[methoxymethyl]pyrid-2-ylmethyl)-3H-[1,2,3]triazolo[4,5-d]pyrimidin-5-amine] | 270 | 96 | 2.8 | 1000 | 354 | 8170 | 2893 | 10 | –
COc1cccc(-c2nc(N)nc3c2nnn3Cc2cccc(C(C)(C)O)n2)c1 [Example 14, 7-(3-methoxyphenyl)-3-(6-[1-hydroxy-1-methylethyl]pyrid-2-ylmethyl)-3H-[1,2,3]triazolo[4,5-d]pyrimidin-5-amine] | 498 | 83 | 6 | 437 | 73 | 613 | 102 | 30 | –
CC(C)(O)c1cccc(Cn2nnc3c(-c4cccc(C#N)c4)nc(N)nc32)n1 [Example 20, 7-(3-cyanophenyl)-3-(6-[1-hydroxy-1-methylethyl]pyrid-2-ylmethyl)-3H-[1,2,3]triazolo[4,5-d]pyrimidin-5-amine] | 731 | 54 | 13.4 | 1240 | 93 | – | 634 | 3 | –
Cc1csc(-c2nc(N)nc3c2nnn3Cc2cccc(C3(O)CCCC3)n2)n1 [Example 27, 7-(4-methylthiazol-2-yl)-3-(6-[1-hydroxy-1-cyclopentyl]pyrid-2-ylmethyl)-3H-[1,2,3]triazolo[4,5-d]pyrimidin-5-amine] | 1730 | 154 | 11.3 | 5740 | 510 | 7520 | 668 | 10 | –
COCc1cccc(Cn2nnc3c(-c4nc(C)cs4)nc(N)nc32)n1 [Example 30, 7-(4-methylthiazol-2-yl)-3-(6-[methoxymethyl]pyrid-2-ylmethyl)-3H-[1,2,3]triazolo[4,5-d]pyrimidin-5-amine] | 799 | 168 | 4.8 | 2370 | 498 | 4600 | 965 | 3 | –
Cc1ccc(-c2nc(N)nc3c2nnn3Cc2cccc(COC(F)F)n2)o1 [Example 31, 7-(5-methylfuran-2-yl)-3-(6-[difluoromethyloxymethyl]-pyrid-2-ylmethyl)-3H-[1,2,3]triazolo[4,5-d]pyrimidin-5-amine] | – | – | – | – | – | – | – | 1 | 194.8 to 195.1
CCOCCOCc1cccc(Cn2nnc3c(-c4ccc(C)o4)nc(N)nc32)n1 [Example 32] | 334 | 73 | 4.6 | 2020 | 442 | 2500 | 545 | 1 | –
Cc1ccc(-c2nc(N)nc3c2nnn3Cc2cccc(COCC3CCCO3)n2)o1 (stereo not drawn) [Example 33, 745-methylfuran-2-yl-3-(6-[tetrahydrofuran-2-ylmethyl]oxymethylpyrid-2-ylmethyl)-3H-[1,2,3]triazolo[4,5-d]pyrimidin-5-amine] | 299 | 42 | 7.2 | 1980 | 274 | 2180 | 303 | 3 | 154.2 to 154.5
Cc1ccc(-c2nc(N)nc3c2nnn3Cc2cccc(COCC(F)(F)F)n2)o1 [Example 37, 7-(5-methylfuran-2-yl)-3-(6-[2,2,2-trifluoroethyl]oxymethylpyrid-2-ylmethyl)-3H-[1,2,3]triazolo[4,5-d]pyrimidin-5-amine] | 231 | 52 | 4.4 | 2380 | 536 | 2490 | 560 | 1 | –
